Results reported in patent US6773896B2, “Method for direct measurement of coagulation factor VIIa activity in plasma” (Warner-Lambert Company, priority 2001, dated 2004).

Legend:
[1] = molecular target: T1, human FVIIa (Homo sapiens, UniProt P08709); assay: Inhibition of human FVIIa (stated potency); format: biochemical; conditions: read-out: IC50 against human FVIIa
T1 sequence (P08709 213-466 limits assumed): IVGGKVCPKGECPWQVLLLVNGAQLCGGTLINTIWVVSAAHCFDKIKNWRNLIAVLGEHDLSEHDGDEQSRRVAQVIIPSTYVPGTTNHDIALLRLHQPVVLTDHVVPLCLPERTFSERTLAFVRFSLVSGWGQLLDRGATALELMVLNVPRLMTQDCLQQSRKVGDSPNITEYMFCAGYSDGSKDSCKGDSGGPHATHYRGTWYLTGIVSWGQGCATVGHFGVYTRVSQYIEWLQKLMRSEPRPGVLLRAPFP
T1 sequence (P08709 61-212 partner limits assumed): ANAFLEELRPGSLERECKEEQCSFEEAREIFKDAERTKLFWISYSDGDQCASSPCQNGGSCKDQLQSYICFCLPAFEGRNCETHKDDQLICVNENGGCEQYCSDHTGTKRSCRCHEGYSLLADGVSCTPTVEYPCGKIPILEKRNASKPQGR

[2] = molecular target: T2, FVIIa/TF complex (Homo sapiens, UniProt P08709); assay: In vitro one-stage FVIIa activity assay in human plasma (Spectrozyme FVIIa cleavage); format: biochemical; conditions: for Effect on FVIIa activity in human plasma: 0.625% pooled human plasma, 10 nM FVIIa, 15 nM TF, vs own control
T2 construct: purchased American Diagnostica, Greenwich, Conn
T2 sequence (P13726 33-295 partner, one chain of several): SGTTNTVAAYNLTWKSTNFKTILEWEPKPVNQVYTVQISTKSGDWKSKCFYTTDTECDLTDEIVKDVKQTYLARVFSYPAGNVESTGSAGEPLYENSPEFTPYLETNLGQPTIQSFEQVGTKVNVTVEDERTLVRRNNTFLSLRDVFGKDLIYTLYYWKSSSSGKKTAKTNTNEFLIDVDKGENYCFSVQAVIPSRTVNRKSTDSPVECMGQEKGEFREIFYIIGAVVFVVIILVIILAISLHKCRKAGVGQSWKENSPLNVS
Protocol: The proteolytic activity of FVIIa was measured by cleavage of paranitroanilide (pNA) substrate (Spectrozyme FVIIa) in a 96-well microtiter plate.
A series of samples containing enzyme inhibitors (0-300 μM) were added to well in a 96-well microtiter plate containing Tris-buffer ([…] Tris, pH 7.4, 100 mM NaCl), 0.625% plasma, 0.1% BSA. After addition of FVIIa (10 nM in final concentration), the plate was incubated for 15 minutes at 37° C. Then the TF (15 nM in final concentration) and CaCl2 (5 mM in final concentration) were added, and the plate was incubated for additional 15 minutes at 37° C. again. After incubation, the substrate (Spectrozyme FVIIa) was added at a final concentration of 0.5 mM to result in a final volume of 200 μL/well. The rate of change in absorbance at 405 nm was monitored by a Softmax plate reader (Molecular Devices).
Above four inhibitors were evaluated in pooled human plasma for their inhibitory effects on FVIIa activity. Effects of FVIIai, 2-[6-(3-Carbamimidoyl-phenoxy)-3,5-difluoro-4-(1-methyl-3-phenyl-propylamino)-pyridin-2-yloxy]-5-dimethylamino-4-methyl-benzoic acid, ({2-(5-Carbamimidoyl-2-hydroxy-phenoxy)-3,5-difluoro-6-[3-(1-methyl-4,5-dihydro-1H-imidazol-2-yl)-phenoxy]-pyridin-4-yl}-methyl-amino)-acetic acid, and (S)-4-[3-(cyclopentylmethylamino)-2-[(2-naphthalenylsulfony)amino]-3-oxopropyl]benzenecarboximidic acid hydrazide on FVIIa activity were compared with their own control group. The activity of FVIIa was obtained with a final concentration of 0.625% human plasma, 10 nM FVIIa, 15 nM TF, 5 mM CaCl2, and 0.5 mM SPZFVIIa.

[3] = Ex vivo study in rabbit plasma: plasma concentration calculated from FVIIa activity; conditions: 3 mg/kg IV bolus, 1-60 min, n=3, calculated from FVIIa activity and IC50 standard curve
Protocol: (§1) The FVIIa activity was measured in the plasma collected from rabbits that received 2-[6-(3-Carbamimidoyl-phenoxy)-3,5-difluoro-4-(1-methyl-3-phenyl-propylamino)-pyridin-2-yloxy]-5-dimethylamino-4-methyl-benzoic acid, IV bolus, 3 mg/kg (n=3). Blood samples were collected before and 1, 5, 10, 30, and 60 minutes after the onset of administration, followed by plasma preparation. 2-[6-(3-Carbamimidoyl-phenoxy)-3,5-difluoro-4-(1-methyl-3-phenyl-propylamino)-pyridin-2-yloxy]-5-dimethylamino-4-methyl-benzoic acid in plasma was extracted using 4 volumes of CH3CN to 1 volume of plasma. Precipitated proteins were removed by centrifugation at 2000 g for 5 minutes. Solvent was decanted into small glass tubes and dried at 37° C. under a stream of nitrogen, then reconstituted in Tris-buffer. The method of FVIIa activity assay is the same as in vitro study. FVIIa activity was determined by measuring the rate of absorbance change at 405 nm due to cleavage of the spectrozyme FVIIa (0.5 mM) by FVIIa/TF complex. Plasma concentrations of 2-[6-(3-Carbamimidoyl-phenoxy)-3,5-difluoro-4-(1-methyl-3-phenyl-propylamino)-pyridin-2-yloxy]-5-dimethylamino-4-methyl-benzo acid were determined by using a standards inhibition curve that were generated from rabbit plasma containing known amount of inhibitor and processed identically to test samples. […]

[4] = molecular target: T3, FVIIa (Homo sapiens, UniProt P08709); assay: Ex vivo FVIIa activity assay in plasma from treated rabbits, two plasma concentrations; conditions: rabbit, 3 mg/kg IV bolus
T3 construct: purchased American Diagnostica, Greenwich, Conn
T3 sequence (P13726 33-295 partner, one chain of several): as above
Protocol: as §1

[5] = molecular target: T3, FVIIa; assay: Ex vivo FVIIa activity assay in plasma of hypercholesterolemic rabbits (balloon-induced injury model of thrombosis); set-up: species or system rabbit; conditions: IV bolus 0.3 and 1.0 mg/kg, 3 minutes after administration
Protocol: (§2) The FVIIa activity was measured in plasma collected from hypercholesterolemic rabbits in a balloon-induced injury model of thrombosis. The rabbits received two doses of 7-[(R)-3-(3-Amino-benzyl)-4-(4-amino-phenyl)-4-methyl-2,5-dioxo-imidazolidin-1-ylmethyl]-naphthalene-2-carboxamidine, IV bolus, 0.3 mg/kg (n=5) and 1.0 mg/kg (n=6). Blood samples were collected before and 3 minutes after administration, followed by plasma preparation. Plasma samples were extracted using CH3CN and reconstituted in Tris-buffer. The protocol is the same as ex vivo study of 2-[6-(3-Carbamimidoyl-phenoxy)-3,5-difluoro-4-(1-methyl-3-phenyl-propylamino)-pyridin-2-yloxy]-5-dimethylamino-4-methyl-benzoic acid. The plasma levels of 7-[(R)-3-(3-Amino-benzyl)-4-(4-amino-phenyl)-4-methyl-2,5-dioxo-imidazolidin-1-ylmethyl]-naphthalene-2-carboxamidine were calculated based on the test plasma FVIIa activity and an IC50 standard curve. […]
(§3) The inhibitory effect and plasma concentration of 7-[(R)-3-(3-Amino-benzyl)-4-(4-amino-phenyl)-4-methyl-2,5-dioxo-imidazolidin-1-ylmethyl]-naphthalene-2-carboxamidine was determined in balloon-induced injury model of thrombosis in hypercholesterolemic rabbits. […] The inhibitory effect of 7-[(R)-3-(3-Amino-benzyl)-4-(4-amino-phenyl)-4-methyl-2,5-dioxo-imidazolidin-1-ylmethyl]-naphthalene-2-carboxamidine was measured by FVIIa activity assay. […]

[6] = Plasma level in hypercholesterolemic rabbits calculated from FVIIa activity; format: in vivo, rabbit; conditions: IV bolus 0.3 and 1.0 mg/kg, 3 minutes after administration
Protocol: as §2, §3

[7] = molecular target: thrombin (Homo sapiens, UniProt P00734); assay: Inhibition of thrombin (stated potency); format: biochemical

Cc1cc(Oc2nc(Oc3cccc(C(=N)N)c3)c(F)c(NC(C)CCc3ccccc3)c2F)c(C(=O)O)cc1N(C)C (centres unmarked) [2-[6-(3-Carbamimidoyl-phenoxy)-3,5-difluoro-4-(1-methyl-3-phenyl-propylamino)-pyridin-2-yloxy]-5-dimethylamino-4-methyl-benzoic acid]
IC50 [1]: 15 nM | Effect on FVIIa activity in human plasma ([2]; 300 nM): significantly decreased FVIIa activity | Inhibition on FVIIa activity in human plasma over a series of concentrations ([2]; human plasma, series of concentrations): dose-dependent inhibition | Plasma concentration after IV bolus administration [3]: time-dependent change in plasma concentration | Ex vivo inhibitory effect on FVIIa activity with 1.25% vs 0.625% plasma in the assay [4]: same inhibitory effect

C[C@@]1(c2ccc(N)cc2)C(=O)N(Cc2ccc3ccc(C(=N)N)cc3c2)C(=O)N1Cc1cccc(N)c1 [7-[(R)-3-(3-Amino-benzyl)-4-(4-amino-phenyl)-4-methyl-2,5-dioxo-imidazolidin-1-ylmethyl]-naphthalene-2 carboxamidine]
Ex vivo inhibitory effect on FVIIa activity [5]: dose-dependent changes in inhibitory effect | Plasma level [6]: dose-dependent changes

N=C(NN)c1ccc(C[C@H](NS(=O)(=O)c2ccc3ccccc3c2)C(=O)NCC2CCCC2)cc1 [(S)-4-[3-(cyclopentylmethylamino)-2-[(2-naphthalenylsulfonyl)amino]-3-oxoprpoyl]-benzenecarboximidic acid hydrazide]
IC50 ([7]; read-out: IC50 against thrombin): 2 nM | Ki ([7]; read-out: Ki against thrombin): 0.38 nM | Effect on FVIIa activity in human plasma ([2]; 100 nM): did not alter FVIIa activity

CN1CCN=C1c1cccc(Oc2nc(Oc3cc(C(=N)N)ccc3O)c(F)c(N(C)CC(=O)O)c2F)c1 [({2-(5-Carbamimidoyl-2-hydroxy-phenoxy)-3,5-difluoro-6-[3-(1-methyl-4,5-dihydro-1H-imidazol-2-yl)-phenoxy]-pyridin-4-yl}-methyl-amino)-acetic acid]
Effect on FVIIa activity in human plasma ([2]; 100 nM): did not alter FVIIa activity
